Test results from patent US20230024778A1, “STRIGOLACTONE RECEPTOR INHIBITOR, AGRICULTURAL COMPOSITION AND USE THEREOF, STRIGA SEED GERMINATION INHIBITOR, AND TRIAZOLE UREA COMPOUND” (The University of Tokyo, priority 2017, published 2023).

Tested on: seeds of Striga (Striga hermonthica)
Assay: Germination inhibition test of Striga seeds
Assay type: in vivo
Procedure: The coadministration of the GR24 or the GR24 and the compound 25 was performed on seeds of Striga (Striga hermonthica) pretreated for one week at 30° C. The GR24 treatment was performed with 0.1 μM, and the compound 25 treatment was performed with 50 μM or 100 μM.

CC1=CC(O/C=C2/C(=O)O[C@@H]3c4ccccc4C[C@H]23)OC1=O (some centres unmarked) [GR24]
germination of the Striga seeds (GR24 0.1 μM added): germination of the Striga seeds is accelerated | Germination rate of striga seed (GR24 0.1 μM alone, compound 25 0 μM): 30.92%
